Where two headings read alike, the source gives them in different places.
How the values were obtained:
EGFR wild type = biological target: T1, EGFR wild type (Homo sapiens, UniProt P00533); assay: Inhibition of EGFR wild type biochemical enzymatic activity (HTRF); settings: 1 mM ATP
T1 construct: purchased Carna Bio
Method in brief: (§1)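 Read-out is the HTRF 665/615 nm ratio (excitation 320 nm), taken as proportional to kinase activity after a 1 h room-temperature reaction with 1 mM ATP and 1 μM biotinylated TK substrate. IC50 values derive from four-parameter logistic fitting.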

EGFR Exon19Del = biological target: T2, EGFR Exon19Del (Homo sapiens, UniProt P00533, DEL746-750); assay: Inhibition of EGFR Exon19Del biochemical enzymatic activity (HTRF); settings: read-out: IC50 @Del19
T2 construct: purchased Carna Bio
Method in brief: as §1

EGFR (C797S L858R) = biological target: T3, EGFR (C797S L858R) (Homo sapiens, UniProt P00533, C797S/L858R); assay: Inhibition of EGFR (C797S L858R) biochemical enzymatic activity (HTRF); settings: 1 mM ATP
T3 construct: purchased signalchem
T3 sequence (P00533 25-1210 C797S/L858R): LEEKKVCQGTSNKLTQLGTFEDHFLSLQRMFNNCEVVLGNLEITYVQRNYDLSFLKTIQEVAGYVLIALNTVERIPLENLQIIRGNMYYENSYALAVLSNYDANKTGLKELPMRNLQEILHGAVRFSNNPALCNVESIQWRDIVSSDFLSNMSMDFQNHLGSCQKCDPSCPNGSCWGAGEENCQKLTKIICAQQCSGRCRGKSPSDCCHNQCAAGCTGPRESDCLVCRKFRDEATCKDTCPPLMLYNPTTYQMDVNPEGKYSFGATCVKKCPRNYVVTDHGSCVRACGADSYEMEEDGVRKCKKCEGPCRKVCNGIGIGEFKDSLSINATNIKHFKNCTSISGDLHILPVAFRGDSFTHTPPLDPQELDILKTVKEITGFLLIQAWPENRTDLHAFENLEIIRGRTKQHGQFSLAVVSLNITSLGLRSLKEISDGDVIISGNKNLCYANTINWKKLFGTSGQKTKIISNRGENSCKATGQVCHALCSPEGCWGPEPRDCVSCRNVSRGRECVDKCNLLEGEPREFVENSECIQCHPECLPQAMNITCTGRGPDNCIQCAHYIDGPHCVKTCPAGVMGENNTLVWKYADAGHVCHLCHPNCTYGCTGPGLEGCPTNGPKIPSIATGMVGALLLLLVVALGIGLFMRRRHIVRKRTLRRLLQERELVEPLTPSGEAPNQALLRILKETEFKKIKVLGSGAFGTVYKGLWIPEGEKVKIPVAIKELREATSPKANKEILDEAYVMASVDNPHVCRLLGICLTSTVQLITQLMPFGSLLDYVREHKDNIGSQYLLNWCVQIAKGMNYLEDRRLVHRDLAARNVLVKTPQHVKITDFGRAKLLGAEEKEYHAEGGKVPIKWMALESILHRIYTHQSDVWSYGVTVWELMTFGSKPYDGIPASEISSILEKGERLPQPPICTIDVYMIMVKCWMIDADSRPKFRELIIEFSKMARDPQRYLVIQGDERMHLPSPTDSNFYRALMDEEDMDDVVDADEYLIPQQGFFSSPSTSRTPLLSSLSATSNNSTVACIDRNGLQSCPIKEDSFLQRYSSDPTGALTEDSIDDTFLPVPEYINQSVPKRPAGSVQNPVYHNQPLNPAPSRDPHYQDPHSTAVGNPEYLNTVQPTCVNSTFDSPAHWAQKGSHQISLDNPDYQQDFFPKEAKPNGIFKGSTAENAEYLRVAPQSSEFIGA
Method in brief: as §1

EGFR L858R = biological target: T4, EGFR L858R (Homo sapiens, UniProt P00533, L858R); assay: Inhibition of EGFR L858R biochemical enzymatic activity (HTRF); settings: 1 mM ATP
T4 construct: purchased Carna Bio
T4 sequence (P00533 25-1210 L858R): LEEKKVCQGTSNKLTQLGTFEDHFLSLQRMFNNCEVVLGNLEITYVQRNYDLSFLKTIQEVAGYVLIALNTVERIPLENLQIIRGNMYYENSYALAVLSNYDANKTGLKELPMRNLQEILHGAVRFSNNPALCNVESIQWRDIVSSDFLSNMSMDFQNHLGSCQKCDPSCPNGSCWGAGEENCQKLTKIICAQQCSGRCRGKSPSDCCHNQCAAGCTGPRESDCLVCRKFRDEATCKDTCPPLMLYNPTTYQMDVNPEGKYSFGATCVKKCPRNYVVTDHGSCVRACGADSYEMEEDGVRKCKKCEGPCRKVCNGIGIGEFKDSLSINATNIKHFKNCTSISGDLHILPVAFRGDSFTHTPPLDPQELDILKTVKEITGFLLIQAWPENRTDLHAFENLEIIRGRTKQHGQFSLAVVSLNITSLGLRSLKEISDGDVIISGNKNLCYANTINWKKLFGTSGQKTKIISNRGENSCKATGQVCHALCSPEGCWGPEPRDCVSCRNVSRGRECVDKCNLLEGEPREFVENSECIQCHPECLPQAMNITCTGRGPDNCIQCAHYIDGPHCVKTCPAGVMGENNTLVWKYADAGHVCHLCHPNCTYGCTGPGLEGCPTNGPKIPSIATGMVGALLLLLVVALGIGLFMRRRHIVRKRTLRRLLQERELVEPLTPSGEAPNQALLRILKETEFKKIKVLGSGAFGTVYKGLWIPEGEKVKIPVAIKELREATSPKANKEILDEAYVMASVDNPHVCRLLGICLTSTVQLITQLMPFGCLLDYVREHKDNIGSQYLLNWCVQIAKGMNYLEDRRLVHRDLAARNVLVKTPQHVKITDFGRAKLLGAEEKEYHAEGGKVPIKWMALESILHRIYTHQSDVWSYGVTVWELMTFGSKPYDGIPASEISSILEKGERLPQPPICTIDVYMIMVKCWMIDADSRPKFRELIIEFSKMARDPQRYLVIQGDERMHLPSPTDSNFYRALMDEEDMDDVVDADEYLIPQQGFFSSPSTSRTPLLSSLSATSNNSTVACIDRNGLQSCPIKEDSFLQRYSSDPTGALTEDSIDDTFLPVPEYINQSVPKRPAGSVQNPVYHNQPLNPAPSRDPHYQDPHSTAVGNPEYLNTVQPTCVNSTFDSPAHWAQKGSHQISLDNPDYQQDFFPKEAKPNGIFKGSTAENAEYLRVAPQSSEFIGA
Method in brief: as §1

EGFR (d746-750 C797S) = biological target: T5, EGFR (d746-750 C797S) (Homo sapiens, UniProt P00533, C797S/DEL746-750); assay: Inhibition of EGFR (d746-750 C797S) biochemical enzymatic activity (HTRF); settings: 1 mM ATP
T5 construct: purchased signalchem
Method in brief: as §1

[1] = system: Ba/F3 cells expressing EGFR mutations; assay: Cell proliferation assay, Ba/F3 cells expressing EGFR mutations (CellTiter-Glo, 72 hours); assay type: cell-based
Method in brief: (§2)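 Seed Ba/F3 at 5000 cells/well and PC-9 at 500 cells/well (10% FBS RPMI1640); incubate overnight; add compound dilution series; read a G0 plate; incubate; read G3; GI50 from best-fit curve.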

EGFR L858R/T790M = biological target: T6, EGFR L858R/T790M (Homo sapiens, UniProt P00533, L858R/T790M); assay: Inhibition of EGFR L858R/T790M biochemical enzymatic activity (HTRF); settings: 1 mM ATP
T6 construct: purchased Carna Bio
T6 sequence (P00533 25-1210 T790M/L858R): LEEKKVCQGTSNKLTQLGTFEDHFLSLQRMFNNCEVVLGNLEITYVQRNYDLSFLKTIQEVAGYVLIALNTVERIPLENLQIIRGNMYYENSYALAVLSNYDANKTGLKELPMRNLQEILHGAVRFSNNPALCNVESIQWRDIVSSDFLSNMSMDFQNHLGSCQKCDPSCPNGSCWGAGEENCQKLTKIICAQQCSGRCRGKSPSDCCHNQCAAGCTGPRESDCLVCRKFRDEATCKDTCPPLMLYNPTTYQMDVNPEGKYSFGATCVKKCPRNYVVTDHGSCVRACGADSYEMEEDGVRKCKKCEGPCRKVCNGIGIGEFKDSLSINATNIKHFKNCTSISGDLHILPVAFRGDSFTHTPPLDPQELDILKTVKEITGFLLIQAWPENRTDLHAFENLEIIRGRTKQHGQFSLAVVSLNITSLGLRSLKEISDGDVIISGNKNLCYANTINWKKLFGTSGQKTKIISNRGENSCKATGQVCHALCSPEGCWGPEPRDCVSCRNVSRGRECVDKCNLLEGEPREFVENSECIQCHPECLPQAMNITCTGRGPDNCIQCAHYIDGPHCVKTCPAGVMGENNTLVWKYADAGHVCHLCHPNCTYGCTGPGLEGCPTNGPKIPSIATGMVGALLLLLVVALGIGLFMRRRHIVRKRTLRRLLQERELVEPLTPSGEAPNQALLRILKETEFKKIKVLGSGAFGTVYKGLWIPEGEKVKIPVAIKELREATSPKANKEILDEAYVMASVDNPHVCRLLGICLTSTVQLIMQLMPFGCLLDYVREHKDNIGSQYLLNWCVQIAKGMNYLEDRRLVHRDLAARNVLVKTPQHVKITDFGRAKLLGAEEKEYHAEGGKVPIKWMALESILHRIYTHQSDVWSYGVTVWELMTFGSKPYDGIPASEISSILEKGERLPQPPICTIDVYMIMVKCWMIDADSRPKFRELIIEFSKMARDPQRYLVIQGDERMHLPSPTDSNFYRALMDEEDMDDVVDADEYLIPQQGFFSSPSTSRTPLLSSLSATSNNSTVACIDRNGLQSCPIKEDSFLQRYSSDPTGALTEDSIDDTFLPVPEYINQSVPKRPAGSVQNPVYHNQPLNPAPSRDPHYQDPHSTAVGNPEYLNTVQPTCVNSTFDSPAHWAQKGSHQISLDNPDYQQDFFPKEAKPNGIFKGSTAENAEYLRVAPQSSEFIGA
Method in brief: as §1

EGFR Exon19Del/T790M = biological target: T7, EGFR Exon19Del/T790M (Homo sapiens, UniProt P00533, DEL746-750/T790M); assay: Inhibition of EGFR Exon19Del/T790M biochemical enzymatic activity (HTRF); settings: 1 mM ATP
T7 construct: purchased Carna Bio
Method in brief: as §1

PC-9 = assay: Cell proliferation assay, PC-9 cells (CellTiter-Glo, 72 hours); assay type: cell-based; settings: PC9 cells, read-out: GI50 PC9
Method in brief: as §2

EGFR[T790M/C797S/L858R] = biological target: T8, EGFR[T790M/C797S/L858R] (Homo sapiens, UniProt P00533, C797S/L858R/T790M); assay: Inhibition of EGFR[T790M/C797S/L858R] biochemical enzymatic activity (HTRF); settings: 1 mM ATP
T8 construct: purchased Carna Bio
T8 sequence (P00533 25-1210 T790M/C797S/L858R): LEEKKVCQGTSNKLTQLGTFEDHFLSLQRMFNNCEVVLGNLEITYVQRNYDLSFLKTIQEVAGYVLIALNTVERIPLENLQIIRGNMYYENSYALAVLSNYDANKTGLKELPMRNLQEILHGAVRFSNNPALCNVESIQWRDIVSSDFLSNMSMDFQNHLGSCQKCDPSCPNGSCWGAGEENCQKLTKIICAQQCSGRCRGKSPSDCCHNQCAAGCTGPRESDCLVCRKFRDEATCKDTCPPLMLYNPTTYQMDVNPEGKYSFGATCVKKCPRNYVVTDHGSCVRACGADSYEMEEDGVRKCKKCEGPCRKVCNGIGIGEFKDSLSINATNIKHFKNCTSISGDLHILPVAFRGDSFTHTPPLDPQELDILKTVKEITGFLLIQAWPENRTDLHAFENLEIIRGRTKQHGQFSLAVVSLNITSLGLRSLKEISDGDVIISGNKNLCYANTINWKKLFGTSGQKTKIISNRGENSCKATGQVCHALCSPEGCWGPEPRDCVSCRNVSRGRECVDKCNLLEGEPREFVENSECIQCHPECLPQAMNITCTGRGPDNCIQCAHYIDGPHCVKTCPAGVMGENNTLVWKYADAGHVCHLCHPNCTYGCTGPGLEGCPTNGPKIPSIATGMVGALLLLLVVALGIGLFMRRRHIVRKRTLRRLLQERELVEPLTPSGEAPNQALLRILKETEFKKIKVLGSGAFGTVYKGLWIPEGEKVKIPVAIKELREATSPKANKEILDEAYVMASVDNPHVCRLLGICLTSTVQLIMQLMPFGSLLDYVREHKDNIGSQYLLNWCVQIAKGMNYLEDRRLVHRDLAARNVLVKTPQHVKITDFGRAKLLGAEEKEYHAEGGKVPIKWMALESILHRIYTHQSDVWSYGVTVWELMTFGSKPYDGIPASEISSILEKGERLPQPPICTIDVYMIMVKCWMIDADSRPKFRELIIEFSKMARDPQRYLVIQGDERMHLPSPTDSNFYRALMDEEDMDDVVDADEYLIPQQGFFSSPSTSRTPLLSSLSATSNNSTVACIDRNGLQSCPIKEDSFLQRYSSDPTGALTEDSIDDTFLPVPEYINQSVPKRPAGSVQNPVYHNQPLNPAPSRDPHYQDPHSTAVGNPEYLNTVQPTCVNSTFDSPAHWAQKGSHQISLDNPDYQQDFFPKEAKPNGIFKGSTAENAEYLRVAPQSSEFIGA
Method in brief: as §1

A-431 = assay: Cell proliferation assay, A-431 cells (GI50, Table 6); assay type: cell-based; settings: Homo sapiens, A-431, A-431 cells
[2] = biological target: T9, EGFR[T790M/C797S/d746-750] (Homo sapiens, UniProt P00533, C797S/DEL746-750/T790M); assay: Inhibition of EGFR[T790M/C797S/d746-750] biochemical enzymatic activity (HTRF)
T9 construct: purchased Carna Bio
Method in brief: as §1

[3] = EGFR wild type, 1 h at room temperature, read-out: IC50 @WT
[4] = EGFR Exon19Del, 1 mM ATP, 1 h at room temperature
[5] = EGFR (C797S L858R), 1 h at room temperature, read-out: IC50 @L858-C797S
[6] = 1 h at room temperature, read-out: IC50 @L858R
[7] = EGFR (d746-750 C797S), 1 h at room temperature, read-out: IC50 @Del19-C797S
[8] = BaF3 cells, EGFR DEL19 - C797S, read-out: GI50 DEL19 - C797S/BaF3
[9] = BaF3 cells, EGFR DEL19 - T790-C797S, read-out: GI50 DEL19 - T790-C797S/BaF3
[10] = BaF3 cells, EGFR L858R - C797S, read-out: GI50 L858R - C797S/BaF3
[11] = BaF3 cells, EGFR L858R - T790-C797S, read-out: GI50 L858R - T790-C797S/BaF3
[12] = BaF3 cells, EGFR L858R - T790M, read-out: GI50 L858R - T790M/BaF3
[13] = BaF3 cells, EGFR L858R, read-out: GI50 L858R/BaF3
[14] = EGFR DEL19 - T790M, read-out: GI50 DEL19 - T790M
[15] = EGFR L858R/T790M, 1 h at room temperature, read-out: IC50 @L858R-T790M
[16] = EGFR Exon19Del/T790M, 1 h at room temperature, read-out: IC50 @Del19-T790M
[17] = EGFR[T790M/C797S/L858R], 1 h at room temperature, read-out: IC50 @T790M- C797S - L858R
[18] = EGFR[T790M/C797S/d746-750], 1 mM ATP, 1 h at room temperature, read-out: IC50 @T790M - C797S - Del19
[19] = EGFR WT, 1 h, room temperature, read-out: IC50 (nM) @WT
[20] = EGFR Del19, 1 mM ATP, 1 h, room temperature
[21] = EGFR L858-C797S, 1 h, room temperature, read-out: IC50 (nM) @L858-C797S
[22] = 1 h, room temperature, read-out: IC50 (nM) @L858R
[23] = EGFR Del19-C797S, 1 h, room temperature, read-out: IC50 (nM) @Del19-C797S
[24] = Mus musculus, BaF3, 72 h, BaF3 cells, EGFR DEL19 - C797S, read-out: GI50 DEL19 - C797S/BaF3
[25] = Mus musculus, BaF3, 72 h, BaF3 cells, EGFR DEL19 - T790-C797S, read-out: GI50 DEL19 - T790-C797S/BaF3
[26] = Mus musculus, BaF3, 72 h, BaF3 cells, EGFR L858R - C797S, read-out: GI50 L858R - C797S/BaF3
[27] = Mus musculus, BaF3, 72 h, BaF3 cells, EGFR L858R - T790-C797S, read-out: GI50 L858R - T790-C797S/BaF3
[28] = Mus musculus, BaF3, 72 h, BaF3 cells, EGFR L858R - T790M, read-out: GI50 L858R - T790M/BaF3
[29] = Mus musculus, BaF3, 72 h, BaF3 cells, EGFR L858R, read-out: GI50 L858R/BaF3
[30] = Mus musculus, BaF3, 72 h, EGFR DEL19 - T790M, read-out: GI50 DEL19 - T790M
[31] = EGFR L858R-T790M, 1 h, room temperature, read-out: IC50 (nM) @L858R-T790M
[32] = EGFR Del19-T790M, 1 h, room temperature, read-out: IC50 (nM) @Del19-T790M
[33] = EGFR T790M-C797S-L858R, 1 h, room temperature, read-out: IC50 (nM) @T790M- C797S - L858R
[34] = EGFR T790M-C797S-Del19, 1 mM ATP, 1 h, room temperature, read-out: IC50 (nM) @T790M - C797S - Del19

Structure (SMILES)	IC50 (EGFR wild type; [3]) [nM]	IC50 (EGFR Exon19Del; [4]) [nM]	IC50 (EGFR (C797S L858R); [5]) [nM]	IC50 (EGFR L858R; [6]) [nM]	IC50 (EGFR (d746-750 C797S); [7]) [nM]	GI50 [1, 8] [nM]	GI50 [1, 9] [nM]	GI50 [1, 10] [nM]	GI50 [1, 11] [nM]	GI50 [1, 12] [nM]	GI50 [1, 13] [nM]	GI50 [1, 14] [nM]	IC50 (EGFR L858R/T790M; [15]) [nM]	IC50 (EGFR Exon19Del/T790M; [16]) [nM]	GI50 (PC-9) [nM]	IC50 (EGFR[T790M/C797S/L858R]; [17]) [nM]	GI50 (A-431) [nM]	IC50 [2, 18] [nM]	IC50 (EGFR wild type; [19]) [nM]	IC50 (EGFR Exon19Del; [20]) [nM]	other results
Cc1cc2cc(n1)-c1cnn(C)c1OCCN1CC3CCC(C3)(C1)n1c(nc3ccc(N4CC5CC4CN5C)cc31)NC2=O (single isomer, unassigned) [Example B53B]	971	5.2	9.5	53	1.9	2	2	4	2	2	13	6	2.6	3.9	10	1.7	2570	1.9			
C[C@@H]1CCCOc2ccc(F)cc2-c2cc(cn(C)c2=O)C(=O)Nc2nc3ccc(N4CCN(C)CC4)cc3n2C1 [Example A110, (12R)-4-fluoro-12,27-dimethyl-17-(4-methylpiperazin-1-yl)-8-oxa-14,21,23,27-tetraazapentacyclo[23.3.1.0^{2,7}.0^{14,22}.0^{15,20}]nonacosa-1(29),2(7),3,5,15,17,19,21,25-nonaene-24,28-dione]																	529		216	2.8	IC50 (EGFR (C797S L858R); [21]): 4.9 nM; IC50 (EGFR L858R; [22]): 6.2 nM; IC50 (EGFR (d746-750 C797S); [23]): 1.7 nM; GI50 [1, 24]: 2.6 nM; GI50 [1, 25]: 26 nM; GI50 [1, 26]: 14 nM; GI50 [1, 27]: 30 nM; GI50 [1, 28]: 50 nM; GI50 [1, 29]: 9.6 nM; GI50 [1, 30]: 22 nM; IC50 (EGFR L858R/T790M; [31]): 5.1 nM; IC50 (EGFR Exon19Del/T790M; [32]): 2.9 nM; GI50 (PC-9; Homo sapiens, PC-9, 72 h): 112 nM; IC50 (EGFR[T790M/C797S/L858R]; [33]): 6.1 nM; IC50 [2, 34]: 3.2 nM
C[C@@H]1CCCOc2cc(F)c(F)cc2-c2cc(cn(C)c2=O)C(=O)Nc2nc3ccc(N4CCN(C)CC4)cc3n2C1 [Example A111, (12R)-4,5-difluoro-12,27-dimethyl-17-(4-methylpiperazin-1-yl)-8-oxa-14,21,23,27-tetraazapentacyclo[23.3.1.0^{2,7}.0^{14,22}.0^{15,20}]nonacosa-1(29),2(7),3,5,15,17,19,21,25-nonaene-24,28-dione]																	8230		607	21	IC50 (EGFR (C797S L858R); [21]): 40 nM; IC50 (EGFR L858R; [22]): 36 nM; IC50 (EGFR (d746-750 C797S); [23]): 18 nM; GI50 [1, 24]: 30.3 nM; GI50 [1, 25]: 326 nM; GI50 [1, 26]: 125 nM; GI50 [1, 27]: 309 nM; GI50 [1, 28]: 658 nM; GI50 [1, 29]: 103 nM; GI50 [1, 30]: 325 nM; IC50 (EGFR L858R/T790M; [31]): 86 nM; IC50 (EGFR Exon19Del/T790M; [32]): 46 nM; GI50 (PC-9; Homo sapiens, PC-9, 72 h): 334 nM; IC50 (EGFR[T790M/C797S/L858R]; [33]): 63 nM; IC50 [2, 34]: 47 nM
Cc1cc2cc(n1)-c1cnn(C)c1OCCN1CC3CCC(C3)(C1)n1c(nc3ccc(N4CC[C@H](N(C)C)C4)cc31)NC2=O (single isomer, unassigned) [Example B41B]	581	7.5	8.8	34	3	2	2	7	2	2	12	2	4.2	4.9	8	2.2	1790	3.3			
